Measured values taken from patent publication US20040209956A1 (priority 2003, published 2004).

How the values were obtained:
Format in all cases: physicochemical
[1] = HPLC stability of anion exchange titrated samples (Example 5); settings: product at pH of 11 within a few hours
Method: 3.3 g of a sample containing about 1 g of S-[2-[(1-Iminoethyl)amino]ethyl]-2-methyl-L-cysteine di-hydrochloride was diluted to 20 g. Aliquots of prewashed Amberlite IRA400 (OH) resin was added to the solution and samples were periodically withdrawn through a syringe filter. Intermediate resin filtrations were performed at pH of 7.1 and 8.8 by filtering off the resin in solution and then continuing to add fresh resin to the filtrate. This was done to drive the chloride removal equilibrium and minimize product adsorption. After the final pH of 11.2 was attained, the resin was filtered off. The starting materials, intermediate samples and final filtrate were analyzed.
The resulting samples were analyzed by HPLC. No difference was seen between the HPLC traces of the starting material and product at pH of 11 within a few hours.

[2] = Stability of free zwitterion at different pH by ion pairing gradient HPLC (Example 6); settings: for Purity At The Time Of Titration: a few hours after preparation; for Purity One Week After Titration: after 1 week
Method: Amberlite IRA400 (Cl) resin was rinsed with 3M HCl, water, and then 3M NaOH. Aliquots were 100 ml per 10 g of resin. This procedure was repeated 3 times in order to clean the resin and in order to generate the OH form. A final rinse with water was carried out until the conductivity of the eluting water was 2 μS. The resin was then used to titrate 40 ml of a 50 mg/ml solution of S-[2-[(1-Iminoethyl)amino]ethyl]-2-methyl-L-cysteine di-hydrochloride. The concentration is expressed in terms of zwitterion equivalents. Aliquots were taken throughout the titration, filtered and analyzed by HPLC. Subsamples of the aliquots were saved for a second HPLC analysis 1 week after the titration was performed in order to assess the stability of the samples. Additional aliquots were taken for Cl analysis using an ion selective electrode. The pH was also monitored throughout the titration.
HPLC analyses were performed using an ion pairing gradient method.
Pump A: 20 mM KH2PO4, 10 mM Pentane sulfonic acid, adjusted to pH=3 with phosphoric acid
Gradient: 0% B at 0 min, 26% B at 15 min, 0% B at 15.1 min

physchem = assay: physchem
Text: The parent S-[2-[(1-Iminoethyl)amino]ethyl]-2-methyl-L-cysteine molecule has 3 ionizable groups and can exist in 4 ionization states.
At low pH, the molecule exists as a +2 charged free acid, with the carboxylic acid, amine and amidine moieties protonated. This is the ionization state for the dihydrochloride salt.
As the pH is increased, the carboxylic acid group is the first group to deprotonate, and this produces a net charge on the molecule of +1. If the pH increase is generated by addition of sodium hydroxide to S-[2-[(1-Iminoethyl)amino]ethyl]-2-methyl-L-cysteine, the […] is formed. Other bases would make their corresponding salt forms. If the increase in pH is due to removal of chloride ions by anion exchange processing, the product is the monohydrochloride salt with no sodium or other counterions.
A positive charge still resides on the amidine, and a negative charge still resides on the carboxyl group. In contrast, if such material is made by the addition of sodium hydroxide to the dihydrochloride, the resulting product is the monohydrochloro sodium salt, mixed with one equivalent of sodium chloride. The material prepared by the anion exchange resin approach is the free zwitterion.
Further increases in pH lead to deprotonation of the amidine ion (pKa˜12.5). The molecule in this pH range is the free base and acid salt. […]

[3] = Pseudo-titration in water with IRA-400(OH) anion exchange resin, samples assayed by HPLC (Example 3); settings: for pH of slower rise representative of the pK: pseudo-titration in water, not true equilibrium
Method: 60 g of Amberlite IRA400 (OH) resin was prewashed with 4.7 percent (by weight) ammonium hydroxide (50 ml of 28 percent ammonium hydroxide, 250 ml deionized water), followed by extensive washing with deionized water. The final conductivity was 6.1 μS.
Samples containing about 0.9 g of S-[2-[(1-Iminoethyl)amino]ethyl]-2-methyl-L-cysteine di-hydrochloride in 142 ml HCl/water solution, were concentrated on a rotary evaporator at 60° C. to an oil. To the oil, diluted to 60 ml with deionized water, was added aliquots of 0.5 g of washed anion exchange resin while stirring. At five minutes after each aliquot of resin was added, the solution pH was measured and a sample removed through a syringe filter. A total of 9 g of anion exchange resin was added. The final pH was 10.8. The resin was removed by filtration and the filtrate was concentrated to an oil by rotary evaporation at 60° C.; no solids formed. The starting material, final filtrate and all intermediate samples were assayed by HPLC and ion chromatography for chloride.
The diamond (solid line) is pH and square (dashed line) is S-[2-[(1-Iminoethyl)amino]ethyl]-2-methyl-L-cysteine (percent initial, by ion chromatography). […] The diamond (solid line) is pH and triangle (broken line) is chloride (by ion chromatography).
These curves are not true titration curves since samples were withdrawn during the progress of the reaction, and since true equilibrium was not attained before the increments of resin were added. Nevertheless, the graphs of FIG. 2 and FIG. 3 illustrate the expected trends. As resin is added to the S-[2-[(1-Iminoethyl)amino]ethyl]-2-methyl-L-cysteine solution the pH rises with change in slope around pH's of 2, 9 and 11. The pH's of slower rise are representative of the pK's of the carboxylic acid, amine and amidine functional groups, respectively. Above a pH of 10, the S-[2-[(1-Iminoethyl)amino]ethyl]-2-methyl-L-cysteine concentration in solution decreases. At this point, the S-[2-[(1-Iminoethyl)amino]ethyl]-2-methyl-L-cysteine is gaining a net negative charge and is binding to the resin. […] The final chloride content is approximately 0.04 mol equivalents.

[4] = Solubility and solid form in DMF/water/acetonitrile ternary solvent system; settings: one molar equivalent excess maleic acid
Method: The final set of solubility studies were conducted in ternary solvent systems of dimethyl formamide (DMF)/water/acetonitrile (ACN). This system was studied because most of the early success in crystallizing S-[2-[(1-Iminoethyl)amino]ethyl]-2-methyl-L-cysteine maleate salt was found in this solvent mixture. […] Experiments were only conducted for the last four of these compositions at 25° C., but the data was collected for the compositions at 5° C. Supernatant was analyzed after four and nineteen days. Equilibrated solids were also isolated and characterized after nineteen days from most experiments (see Table 5). […] Table 5, lists concentration data in wt % S-[2-[(1-Iminoethyl)amino]ethyl]-2-methyl-L-cysteine from all the experiments at 5 and 25° C. after four and nineteen days of equilibration. […] There is also some temperature dependence for solubility across all the experiments. When the data is analyzed at a fixed ACN content, it seems that the solubility initially decreases before increasing as the DMF content of the system is increased at the expense of water. This trend seems to hold for both 70 and 90% ACN. […] In summary, though this solvent system is complex, it does offer regions of solvent composition conducive to crystallization process design especially for form II.

[5] = Moisture sorption of Form I; settings: 90% R.H. and 25° C.
Text: FIG. 12 is a plot of a moisture sorption study of S-[2-[(1-Iminoethyl)amino]ethyl]-2-methyl-L-cysteine maleate.

CC(=N)NCCSC[C@](C)(N)C(=O)O [S-[2-[(1-Iminoethyl)amino]ethyl]-2-methyl-L-cysteine]
Difference between HPLC traces of starting material and product [1]: No difference
Purity At The Time Of Titration ([2]; Sample pH 2.13): 98.6 Peak Area %
Purity One Week After Titration ([2]; Sample pH 2.13): 98.4 Peak Area %
Purity At The Time Of Titration ([2]; Sample pH 3.83): 98.7 Peak Area %
Purity One Week After Titration ([2]; Sample pH 3.83): 98.1 Peak Area %
Purity At The Time Of Titration ([2]; Sample pH 8.48): 98.5 Peak Area %
Purity One Week After Titration ([2]; Sample pH 8.48): 97.4 Peak Area %
Purity At The Time Of Titration ([2]; Sample pH 9.37): 98.5 Peak Area %
Purity One Week After Titration ([2]; Sample pH 9.37): 97.2 Peak Area %
Purity At The Time Of Titration ([2]; Sample pH 9.78): 98.3 Peak Area %
Purity One Week After Titration ([2]; Sample pH 9.78): 97.2 Peak Area %
Purity At The Time Of Titration ([2]; Sample pH 10.27): 98.3 Peak Area %
Purity One Week After Titration ([2]; Sample pH 10.27): 96.4 Peak Area %
Purity At The Time Of Titration ([2]; Sample pH 10.83): 96.6 Peak Area %
Purity One Week After Titration ([2]; Sample pH 10.83): 94.7 Peak Area %
Purity At The Time Of Titration ([2]; Sample pH 11.6): 98.3 Peak Area %
Purity One Week After Titration ([2]; Sample pH 11.6): 92.4 Peak Area %
Purity At The Time Of Titration ([2]; Sample pH 11.75): 97.9 Peak Area %
Purity One Week After Titration ([2]; Sample pH 11.75): 89.2 Peak Area %
Purity At The Time Of Titration ([2]; Sample pH .94): 98.0 Peak Area %
Purity One Week After Titration ([2]; Sample pH .94): 98.3 Peak Area %
pKa (physchem): ~8.4
pH of slower rise representative of the pK ([3]; amidine group): ~11
pH of slower rise representative of the pK ([3]; amine group): ~9
pH of slower rise representative of the pK ([3]; carboxylic acid group): ~2
Degradation by HPLC assay of the samples ([3]; samples titrated up to final pH 10.8, Example 3): no degradation

CC(=N)NCCSC[C@](C)(N)C(=O)O.O=C(O)/C=C\C(=O)O [S-[2-[(1-Iminoethyl)amino]ethyl]-2-methyl-L-cysteine maleate]
Solubility in DMF/water/acetonitrile ([4]; 5/5/90 D/W/A, 5° C., 4 Days): 1.15 Wt %
Solubility in DMF/water/acetonitrile ([4]; 5/5/90 D/W/A, 5° C., 19 Days): 1.16 Wt %
Solubility in DMF/water/acetonitrile ([4]; 6.3/3.4/90 D/W/A, 5° C., 4 Days): 1.35 Wt %
Solubility in DMF/water/acetonitrile ([4]; 6.3/3.4/90 D/W/A, 5° C., 19 Days): 1.02 Wt %
Solubility in DMF/water/acetonitrile ([4]; 6.3/3.4/90 D/W/A, 25° C., 4 Days): 2.13 Wt %
Solubility in DMF/water/acetonitrile ([4]; 6.3/3.4/90 D/W/A, 25° C., 19 Days): 1.74 Wt %
Solubility in DMF/water/acetonitrile ([4]; 7.5/2.5/90 D/W/A, 5° C., 4 Days): 4.19 Wt %
Solubility in DMF/water/acetonitrile ([4]; 7.5/2.5/90 D/W/A, 5° C., 19 Days): 2.12 Wt %
Solubility in DMF/water/acetonitrile ([4]; 7.5/2.5/90 D/W/A, 25° C., 4 Days): 2.53 Wt %
Solubility in DMF/water/acetonitrile ([4]; 7.5/2.5/90 D/W/A, 25° C., 19 Days): 2.45 Wt %
Solubility in DMF/water/acetonitrile ([4]; 15/15/70 D/W/A, 5° C., 4 Days): 3.31 Wt %
Solubility in DMF/water/acetonitrile ([4]; 15/15/70 D/W/A, 5° C., 19 Days): 5.71 Wt %
Solubility in DMF/water/acetonitrile ([4]; 20/10/70 D/W/A, 5° C., 4 Days): 2.91 Wt %
Solubility in DMF/water/acetonitrile ([4]; 20/10/70 D/W/A, 5° C., 19 Days): 1.75 Wt %
Solubility in DMF/water/acetonitrile ([4]; 20/10/70 D/W/A, 25° C., 4 Days): 3.46 Wt %
Solubility in DMF/water/acetonitrile ([4]; 20/10/70 D/W/A, 25° C., 19 Days): 2.33 Wt %
Solubility in DMF/water/acetonitrile ([4]; 22.5/7.5/70 D/W/A, 5° C., 4 Days): 3.06 Wt %
Solubility in DMF/water/acetonitrile ([4]; 22.5/7.5/70 D/W/A, 5° C., 19 Days): 2.75 Wt %
Solubility in DMF/water/acetonitrile ([4]; 22.5/7.5/70 D/W/A, 25° C., 4 Days): 4.90 Wt %
Solubility in DMF/water/acetonitrile ([4]; 22.5/7.5/70 D/W/A, 25° C., 19 Days): 7.38 Wt %

S-[2-[(1-Iminoethyl)amino]ethyl]-2-methyl-L-cysteine maleate crystalline salt Form I
Water absorbed by weight [5]: less than one percent
